Assay results from patent US20260365647A1, “AKT1 MODULATORS” (Alterome Therapeutics, Inc., priority 2022, published 2026).

Each molecule was assayed against T1, AKT1-E17K (Homo sapiens, UniProt P31749, E17K) (assay: NanoBRET Target Engagement (TE) Assay).
T1 construct: host or cells: HEK-293 (ATCC CRL-1573)
Format: cell-based
Source text: The NanoBRET™ Target Engagement (TE) Intracellular Kinase Assays are based on the NanoBRET™ System (Promega Corporation), an energy transfer technique designed to measure molecular proximity in living cells. The NanoBRET™ TE Assays measure the apparent affinity of test compounds by competitive displacement of the NanoBRET™ tracer compound, which is a cell permeable molecule engineered to be reversibly bound to a NanoLuc® luciferase-kinase fusion expressed in cells. For compound screening, when a test compound binds to the selected kinase, the BRET signal is attenuated. […] All cells were evaluated for viability prior to transfection and optimization of the transfection was done prior to experimentation. […] Following transfection, cells were washed and resuspended in Opti-MEM. NanoBRET assays were performed in white, 384-well plates (Corning) at a density of […]. All example compounds were prepared as concentrated stock solutions in DMSO (Sigma-Aldrich). Compounds are dissolved in DMSO to make 10 mM stock solution. […] A Labcyte ECHO 550 compound dispenser was used to facilitate compound transfer directly to cells. Cells were equilibrated for 2 hr with energy transfer probes and example compound prior to BRET measurements. […] For target engagement analysis, the energy transfer probes were added to the cells at concentrations optimized for the target in question (AKT E17K). Following compound incubation, NanoBRET NanoGlo Substrate (Promega Cat #N157D) and Extracellular Nanoluc Inhibitor (Promega Cat #N235C) was added according to the manufacturer's recommended protocol, and luminescence was measured on Envision Reader (Perkin Elmer) Multimode Luminometer equipped with 450 nmBPfilter (donor) and 600 nmLPfilter (acceptor), using 0.5 s integration time. Milli-BRET units (mBU) are calculated by multiplying the raw BRET values by 1000. Apparent tracer affinity values (EC50) were determined using the sigmoidal dose-response (variable slope). Competitive displacement data were then plotted and data were fit to determine the EC50 value for each example compound.

T1 sequence (P31749 whole entry E17K): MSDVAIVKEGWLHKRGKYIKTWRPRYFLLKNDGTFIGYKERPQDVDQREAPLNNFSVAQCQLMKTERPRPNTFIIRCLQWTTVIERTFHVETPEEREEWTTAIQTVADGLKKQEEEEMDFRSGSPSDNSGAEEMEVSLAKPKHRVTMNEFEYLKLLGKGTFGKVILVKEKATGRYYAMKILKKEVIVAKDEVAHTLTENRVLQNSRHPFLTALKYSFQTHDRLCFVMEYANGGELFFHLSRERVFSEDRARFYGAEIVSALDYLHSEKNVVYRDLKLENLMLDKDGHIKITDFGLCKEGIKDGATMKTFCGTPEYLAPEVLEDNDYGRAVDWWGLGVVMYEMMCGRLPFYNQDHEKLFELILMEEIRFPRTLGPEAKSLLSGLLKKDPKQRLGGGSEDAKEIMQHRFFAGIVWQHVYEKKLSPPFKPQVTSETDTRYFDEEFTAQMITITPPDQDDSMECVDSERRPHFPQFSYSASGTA

Structure (SMILES)	IC50 [nM]
Nc1ncccc1-c1nc2ccc(-c3cccc(Cl)c3)nc2n1-c1ccc(CN2CCN(C(=O)c3ccc(O)c(C=O)c3)CC2)cc1 [Example 42, 5-(4-(4-(2-(2-Aminopyridin-3-yl)-5-(3-chlorophenyl)-3H-imidazo[4,5-b]pyridin-3-yl)benzyl)piperazine-1-carbonyl)-2-hydroxybenzaldehyde]	60 to 600
Nc1ncccc1-c1nc2ccc(-c3ccccc3)nc2n1-c1ccc(CN2CC3(C2)CN(c2ccc(O)c(C=O)c2)C3)cc1 [Example 91, 5-(6-(4-(2-(2-Aminopyridin-3-yl)-5-phenyl-3H-imidazo[4,5-b]pyridin-3-yl)benzyl)-2,6-diazaspiro[3.3]heptan-2-yl)-2-hydroxybenzaldehyde]	60 to 600
Nc1ncccc1-c1nc2ccc(-c3ccccc3)nc2n1-c1ccc(CN2CCCN(C(=O)c3ccc(O)c(C=O)c3)CC2)cc1 [Example 119, 5-(4-(4-(2-(2-Aminopyridin-3-yl)-5-phenyl-3H-imidazo[4,5-b]pyridin-3-yl)benzyl)-1,4-diazepane-1-carbonyl)-2-hydroxybenzaldehyde]	15 to 60
CN(C(=O)c1ccc(C=O)c(O)c1)C1CCN(Cc2ccc(-n3c(-c4cccnc4N)nc4ccc(-c5ccccc5)nc43)cc2)CC1 [Example 60, N-(1-(4-(2-(2-Aminopyridin-3-yl)-5-phenyl-3H-imidazo[4,5-b]pyridin-3-yl)benzyl)piperidin-4-yl)-4-formyl-3-hydroxy-N-methylbenzamide]	60 to 600
Nc1ncccc1-c1nc2ccc(-c3ccccc3)nc2n1-c1ccc(CN2CCC(Nc3cccc(O)c3C=O)CC2)cc1 [Example 51, 2-((1-(4-(2-(2-Aminopyridin-3-yl)-5-phenyl-3H-imidazo[4,5-b]pyridin-3-yl)benzyl)piperidin-4-yl)amino)-6-hydroxybenzaldehyde]	60 to 600
Nc1ncccc1-c1nc2ccc(C3=CCOCC3)nc2n1-c1ccc(CN2CCN(C(=O)c3ccc(C=O)c(O)c3)CC2)cc1 [Example 30, 4-(4-(4-(2-(2-Aminopyridin-3-yl)-5-(3,6-dihydro-2H-pyran-4-yl)-3H-imidazo[4,5-b]pyridin-3-yl)benzyl)piperazine-1-carbonyl)-2-hydroxybenzaldehyde]	60 to 600
Nc1ncccc1-c1nc2ccc(-c3ccccc3)nc2n1-c1ccc(CN2CCC3(CC2)CC(NC(=O)c2ccc(O)c(C=O)c2)C3)cc1 [Example 68, N-(7-(4-(2-(2-Aminopyridin-3-yl)-5-phenyl-3H-imidazo[4,5-b]pyridin-3-yl)benzyl)-7-azaspiro[3.5]nonan-2-yl)-3-formyl-4-hydroxybenzamide]	15 to 60
Nc1ncccc1-c1nc2ccc(-c3ccc(F)cc3)nc2n1-c1ccc(CN2CCN(C(=O)c3ccc(O)c(C=O)c3)CC2)cc1 [Example 143, 5-(4-(4-(2-(2-Aminopyridin-3-yl)-5-(4-fluorophenyl)-3H-imidazo[4,5-b]pyridin-3-yl)benzyl)piperazine-1-carbonyl)-2-hydroxybenzaldehyde]	60 to 600
N#Cc1ccccc1-c1ccc2nc(-c3cccnc3N)n(-c3ccc(CN4CCN(C(=O)c5ccc(C=O)c(O)c5)CC4)cc3)c2n1 [Example 37, 2-(2-(2-Aminopyridin-3-yl)-3-(4-((4-(4-formyl-3-hydroxybenzoyl)piperazin-1-yl)methyl)phenyl)-3H-imidazo[4,5-b]pyridin-5-yl)benzonitrile]	60 to 600
Nc1ncccc1-c1nc2ccc(-c3ccccc3)nc2n1-c1ccc(COc2ccc(C=O)c(O)c2)cc1 [Example 138, 4-((4-(2-(2-Aminopyridin-3-yl)-5-phenyl-3H-imidazo[4,5-b]pyridin-3-yl)benzyl)oxy)-2-hydroxybenzaldehyde]	60 to 600
Nc1ncccc1-c1nc2ccc(-c3ccccc3)nc2n1-c1ccc(CN2CCC3(CCN(C(=O)c4ccc(O)c(C=O)c4)CC3)C2)cc1 [Example 84, 5-(2-(4-(2-(2-Aminopyridin-3-yl)-5-phenyl-3H-imidazo[4,5-b]pyridin-3-yl)benzyl)-2,8-diazaspiro[4.5]decane-8-carbonyl)-2-hydroxybenzaldehyde]	60 to 600
Nc1ncccc1-c1nc2ccc(-c3cccc(=O)[nH]3)nc2n1-c1ccc(CN2CCN(C(=O)c3ccc(O)c(C=O)c3)CC2)cc1 [Example 45, 5-(4-(4-(2-(2-Aminopyridin-3-yl)-5-(6-oxo-1,6-dihydropyridin-2-yl)-3H-imidazo[4,5-b]pyridin-3-yl)benzyl)piperazine-1-carbonyl)-2-hydroxybenzaldehyde]	> 600
Nc1ncccc1-c1nc2ccc(-c3ccccc3)nc2n1-c1ccc(CN2CC3(C2)CN(C(=O)c2ccc(C=O)c(O)c2)C3)cc1 [Example 66, 4-(6-(4-(2-(2-Aminopyridin-3-yl)-5-phenyl-3H-imidazo[4,5-b]pyridin-3-yl)benzyl)-2,6-diazaspiro[3.3]heptane-2-carbonyl)-2-hydroxybenzaldehyde]	60 to 600
N#Cc1cccc(-c2ccc3nc(-c4cccnc4N)n(-c4ccc(CN5CCN(C(=O)c6ccc(O)c(C=O)c6)CC5)cc4)c3n2)c1 [Example 34, 3-(2-(2-Aminopyridin-3-yl)-3-(4-((4-(3-formyl-4-hydroxybenzoyl)piperazin-1-yl)methyl)phenyl)-3H-imidazo[4,5-b]pyridin-5-yl)benzonitrile]	60 to 600
Nc1ncccc1-c1nc2cccnc2n1-c1ccc(CNC(=O)c2ccc(C=O)c(O)c2)cc1 [Example 3, N-(4-(2-(2-Aminopyridin-3-yl)-3H-imidazo[4,5-b]pyridin-3-yl)benzyl)-4-formyl-3-hydroxybenzamide]	> 600
Nc1ncccc1-c1nc2ccc(-c3ccc[nH]c3=O)nc2n1-c1ccc(CN2CCN(C(=O)c3ccc(O)c(C=O)c3)CC2)cc1 [Example 14, 5-(4-(4-(2-(2-Aminopyridin-3-yl)-5-(2-oxo-1,2-dihydropyridin-3-yl)-3H-imidazo[4,5-b]pyridin-3-yl)benzyl)piperazine-1-carbonyl)-2-hydroxybenzaldehyde]	> 600
Nc1ncccc1-c1nc2cccnc2n1-c1ccc(CN2CCN(c3ccc(C=O)c(O)c3)CC2)cc1 [Example 16, 4-(4-(4-(2-(2-Aminopyridin-3-yl)-3H-imidazo[4,5-b]pyridin-3-yl)benzyl)piperazin-1-yl)-2-hydroxybenzaldehyde]	60 to 600
Nc1ncccc1-c1nc2ccc(-c3ccccc3)nc2n1-c1ccc(CN2C3CCC2CN(c2ccc(C=O)c(O)c2)C3)cc1 [Example 114, 4-(8-(4-(2-(2-Aminopyridin-3-yl)-5-phenyl-3H-imidazo[4,5-b]pyridin-3-yl)benzyl)-3,8-diazabicyclo[3.2.1]octan-3-yl)-2-hydroxybenzaldehyde]	60 to 600
Nc1ncccc1-c1nc2ccc(-c3ccccc3)nc2n1-c1ccc(CN2CCCN(C(=O)c3ccc(C=O)c(O)c3)CC2)cc1 [Example 72, 4-(4-(4-(2-(2-Aminopyridin-3-yl)-5-phenyl-3H-imidazo[4,5-b]pyridin-3-yl)benzyl)-1,4-diazepane-1-carbonyl)-2-hydroxybenzaldehyde]	15 to 60
Nc1ncccc1-c1nc2ccc(-c3ccccc3F)nc2n1-c1ccc(CN2CCN(C(=O)c3ccc(C=O)c(O)c3)CC2)cc1 [Example 142, 4-(4-(4-(2-(2-Aminopyridin-3-yl)-5-(2-fluorophenyl)-3H-imidazo[4,5-b]pyridin-3-yl)benzyl)piperazine-1-carbonyl)-2-hydroxybenzaldehyde]	> 600
Nc1ncccc1-c1nc2ccc(-c3ccccc3)nc2n1-c1ccc(CN2CCN(C(=O)c3ccc(O)c(C=O)c3)CC2)cc1 [Example 5, 5-(4-(4-(2-(2-Aminopyridin-3-yl)-5-phenyl-3H-imidazo[4,5-b]pyridin-3-yl)benzyl)piperazine-1-carbonyl)-2-hydroxybenzaldehyde]	60 to 600
Nc1ncccc1-c1nc2ccc(-c3ccccc3)nc2n1-c1ccc(CN2CCC(Nc3cccc(C=O)c3O)CC2)cc1 [Example 50, 3-((I-(4-(2-(2-Aminopyridin-3-yl)-5-phenyl-3H-imidazo[4,5-b]pyridin-3-yl)benzyl)piperidin-4-yl)amino)-2-hydroxybenzaldehyde]	15 to 60
Nc1ncccc1-c1nc2ccc(-c3ccccc3)nc2n1-c1ccc(CN2CCC3(CC2)CN(C(=O)c2ccc(O)c(C=O)c2)C3)cc1 [Example 67, 5-(7-(4-(2-(2-Aminopyridin-3-yl)-5-phenyl-3H-imidazo[4,5-b]pyridin-3-yl)benzyl)-2,7-diazaspiro[3.5]nonane-2-carbonyl)-2-hydroxybenzaldehyde]	60 to 600
Nc1ncccc1-c1nc2ccc(N3CCOCC3)nc2n1-c1ccc(CN2CCN(c3ccc(C=O)c(O)c3)CC2)cc1 [Example 31, 4-(4-(4-(2-(2-Aminopyridin-3-yl)-5-morpholino-3H-imidazo[4,5-b]pyridin-3-yl)benzyl)piperazin-1-yl)-2-hydroxybenzaldehyde]	60 to 600
